Assays:
A/WSN/33 H1 virus = tested on: A/WSN/33 H1 virus; set-up: species or system mice; conditions: mouse, in vivo
[1] = tested on: B/FLA/06 yamagata lineage virus; set-up: species or system mice; conditions: mouse, in vivo

## CCOC(=O)C1=C[C@@H](OC(CC)CC)[C@H](NC(C)=O)[C@@H](N)C1 [oseltamivir]
A/WSN/33 H1 virus
  oxygen saturation level (pulse oximetry) Day 6, A/WSN/33: reduced oxygen saturation at similar levels as those treated with an irrelevant control mAb
  protection (survival), influenza A infection model: no protection
[1]
  oxygen saturation level (pulse oximetry) Day 6, B/FLA/06, avg.: 86%
  survival rates, influenza B infection: 90-100%

Reference: patent US11524993B2 (priority 2015, dated 2022)
